Experimental data from ChEMBL document CHEMBL5550160, “Leveraging a rationally designed veliparib-based anilide eliciting anti-leukemic effects for the design of pH-responsive polymer nanoformulation” (Eur J Med Chem, 2024).
Activity calls are given as the source filed them. No cut-off for these calls is given here.

Tests used:
[1] = target: Histone deacetylase 4 (Homo sapiens) (UniProt P56524); experiment: Inhibition of HDAC4 (unknown origin) assessed as residual activity at 1.37 x 10^-8M (reference value: 98.90%); conditions: dose 1.37 10^-8M
[2] = target: Histone deacetylase 4 (Homo sapiens) (UniProt P56524); experiment: Inhibition of HDAC4 (unknown origin) assessed as residual activity at 1.52 x 10^-9M (reference value: 98.90%); conditions: dose 1.52 10^-9M
[3] = target: Histone deacetylase 9 (Homo sapiens) (UniProt Q9UKV0); experiment: Inhibition of HDAC9 (unknown origin) assessed as residual activity at 3.33 x 10^-6M (reference value: 97.55%); conditions: dose 3.33 10^-6M
[4] = test system: HL-60; experiment: Induction of apoptosis in human HL-60 cells assessed as cell blebbing at 0.5 to 1 times IC50 by DAPI staining based microscopic analysis; type: functional
[5] = target: Histone deacetylase 9 (Homo sapiens) (UniProt Q9UKV0); experiment: Inhibition of HDAC9 (unknown origin) assessed as residual activity at 4.12 x 10^-8M (reference value: 97.55%); conditions: dose 4.12 10^-8M
[6] = test system: HL-60; experiment: Induction of autophagy in human HL-60 cells assessed as increase in autophagic flux by measuring increase in red-stained cells at 0.5 to 1 times IC50 by acridine orange staining based microscopic analysis; type: functional, cell-based
[7] = test system: HL-60; experiment: cells; conditions: Homo sapiens
Description: Antiproliferative activity against human HL-60 cells assessed as inhibition of cell growth by MTT assay

[8] = target: Histone deacetylase 3 (Homo sapiens, UniProt O15379); experiment: Inhibition of HDAC3 (unknown origin) using p53 residues 379 to 382 [RHKK(Ac)] as fluorogenic substrate assessed as residual activity at 4.57 x 10^-9M (reference value: 103.08%); conditions: dose 4.57 10^-9M
[9] = target: T1, Histone deacetylase 2 (Homo sapiens, UniProt Q92769); experiment: Inhibition of HDAC2 (unknown origin) assessed as residual activity at 3.33 x 10^-6M (reference value: 99.81%); conditions: dose 3.33 10^-6M
[10] = target: T1, Histone deacetylase 2; experiment: Inhibition of HDAC2 (unknown origin) assessed as residual activity at 5.08 x 10^-10M (reference value: 99.81%); conditions: dose 5.08 10^-10M
[11] = target: T2, Histone deacetylase 8 (Homo sapiens) (UniProt Q9BY41); experiment: Inhibition of HDAC8 (unknown origin) assessed as residual activity at 4.12 x 10^-8M (reference value: 100%); conditions: dose 4.12 10^-8M
T2 sequence (whole entry): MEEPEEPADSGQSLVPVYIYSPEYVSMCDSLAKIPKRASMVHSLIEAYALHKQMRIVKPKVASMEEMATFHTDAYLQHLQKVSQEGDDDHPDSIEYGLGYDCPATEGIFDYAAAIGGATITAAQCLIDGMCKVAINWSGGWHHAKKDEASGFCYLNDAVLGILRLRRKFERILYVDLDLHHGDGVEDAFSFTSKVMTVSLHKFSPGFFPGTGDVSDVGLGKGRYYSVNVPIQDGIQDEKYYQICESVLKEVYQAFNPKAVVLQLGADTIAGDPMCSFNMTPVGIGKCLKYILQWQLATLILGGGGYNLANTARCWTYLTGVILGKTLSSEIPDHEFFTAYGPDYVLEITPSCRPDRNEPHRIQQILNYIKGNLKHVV

[12] = target: T3, Polyamine deacetylase HDAC10 (Homo sapiens) (UniProt Q969S8); experiment: Inhibition of HDAC10 (unknown origin) assessed as residual activity at 3.33 x 10^-6M (reference value: 101.54%); conditions: dose 3.33 10^-6M
T3 sequence (whole entry): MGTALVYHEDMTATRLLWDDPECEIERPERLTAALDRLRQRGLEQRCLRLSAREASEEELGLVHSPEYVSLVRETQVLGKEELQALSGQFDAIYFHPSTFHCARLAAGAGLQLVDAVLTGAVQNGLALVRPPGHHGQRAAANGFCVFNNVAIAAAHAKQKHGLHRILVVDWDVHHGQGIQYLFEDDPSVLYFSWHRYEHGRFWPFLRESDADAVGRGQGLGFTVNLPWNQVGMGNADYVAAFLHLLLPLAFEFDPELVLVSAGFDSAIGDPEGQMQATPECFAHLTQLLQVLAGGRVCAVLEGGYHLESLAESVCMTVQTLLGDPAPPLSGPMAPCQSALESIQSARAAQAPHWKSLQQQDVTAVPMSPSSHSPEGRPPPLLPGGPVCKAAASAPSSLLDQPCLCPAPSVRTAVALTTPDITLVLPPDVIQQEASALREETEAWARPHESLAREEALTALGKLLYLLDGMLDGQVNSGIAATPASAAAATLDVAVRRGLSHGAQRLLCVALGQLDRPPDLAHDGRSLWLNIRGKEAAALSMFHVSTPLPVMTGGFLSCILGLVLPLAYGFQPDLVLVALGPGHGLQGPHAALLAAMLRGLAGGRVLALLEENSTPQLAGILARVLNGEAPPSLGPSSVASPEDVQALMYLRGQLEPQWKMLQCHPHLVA

[13] = target: T4, Histone deacetylase 7 (Homo sapiens) (UniProt Q8WUI4); experiment: Inhibition of HDAC7 (unknown origin) assessed as residual activity at 1.52 x 10^-9M (reference value: 102.66%); conditions: dose 1.52 10^-9M
T4 sequence (whole entry): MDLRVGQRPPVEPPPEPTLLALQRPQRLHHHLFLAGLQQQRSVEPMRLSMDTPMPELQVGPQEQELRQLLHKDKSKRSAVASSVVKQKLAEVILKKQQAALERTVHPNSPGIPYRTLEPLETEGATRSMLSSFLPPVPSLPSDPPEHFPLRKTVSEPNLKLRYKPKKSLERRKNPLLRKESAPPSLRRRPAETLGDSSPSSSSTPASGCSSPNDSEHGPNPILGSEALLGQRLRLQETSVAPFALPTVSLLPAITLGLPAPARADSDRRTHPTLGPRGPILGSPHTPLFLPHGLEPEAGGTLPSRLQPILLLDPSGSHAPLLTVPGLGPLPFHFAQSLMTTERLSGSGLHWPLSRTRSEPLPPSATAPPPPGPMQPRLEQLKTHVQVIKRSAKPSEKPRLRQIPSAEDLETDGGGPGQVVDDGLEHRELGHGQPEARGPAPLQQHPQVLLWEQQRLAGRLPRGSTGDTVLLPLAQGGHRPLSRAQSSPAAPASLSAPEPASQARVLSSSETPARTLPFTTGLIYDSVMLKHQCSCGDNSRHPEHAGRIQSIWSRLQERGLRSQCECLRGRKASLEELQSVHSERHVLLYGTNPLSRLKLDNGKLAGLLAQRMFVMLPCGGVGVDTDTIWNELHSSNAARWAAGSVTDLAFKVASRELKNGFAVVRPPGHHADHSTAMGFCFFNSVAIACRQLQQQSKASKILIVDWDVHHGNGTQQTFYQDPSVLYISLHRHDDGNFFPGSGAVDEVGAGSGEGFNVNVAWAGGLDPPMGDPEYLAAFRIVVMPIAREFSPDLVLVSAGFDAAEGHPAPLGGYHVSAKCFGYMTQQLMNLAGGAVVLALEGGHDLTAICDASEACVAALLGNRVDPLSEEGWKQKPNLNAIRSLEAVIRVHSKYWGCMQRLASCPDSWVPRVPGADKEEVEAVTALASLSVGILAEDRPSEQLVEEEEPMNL

[14] = target: T4, Histone deacetylase 7 (Homo sapiens); experiment: Inhibition of HDAC7 (unknown origin) assessed as residual activity at 4.57 x 10^-9M (reference value: 102.66%); conditions: dose 4.57 10^-9M

Sequence of Histone deacetylase 9 (Homo sapiens) (Q9UKV0 whole entry): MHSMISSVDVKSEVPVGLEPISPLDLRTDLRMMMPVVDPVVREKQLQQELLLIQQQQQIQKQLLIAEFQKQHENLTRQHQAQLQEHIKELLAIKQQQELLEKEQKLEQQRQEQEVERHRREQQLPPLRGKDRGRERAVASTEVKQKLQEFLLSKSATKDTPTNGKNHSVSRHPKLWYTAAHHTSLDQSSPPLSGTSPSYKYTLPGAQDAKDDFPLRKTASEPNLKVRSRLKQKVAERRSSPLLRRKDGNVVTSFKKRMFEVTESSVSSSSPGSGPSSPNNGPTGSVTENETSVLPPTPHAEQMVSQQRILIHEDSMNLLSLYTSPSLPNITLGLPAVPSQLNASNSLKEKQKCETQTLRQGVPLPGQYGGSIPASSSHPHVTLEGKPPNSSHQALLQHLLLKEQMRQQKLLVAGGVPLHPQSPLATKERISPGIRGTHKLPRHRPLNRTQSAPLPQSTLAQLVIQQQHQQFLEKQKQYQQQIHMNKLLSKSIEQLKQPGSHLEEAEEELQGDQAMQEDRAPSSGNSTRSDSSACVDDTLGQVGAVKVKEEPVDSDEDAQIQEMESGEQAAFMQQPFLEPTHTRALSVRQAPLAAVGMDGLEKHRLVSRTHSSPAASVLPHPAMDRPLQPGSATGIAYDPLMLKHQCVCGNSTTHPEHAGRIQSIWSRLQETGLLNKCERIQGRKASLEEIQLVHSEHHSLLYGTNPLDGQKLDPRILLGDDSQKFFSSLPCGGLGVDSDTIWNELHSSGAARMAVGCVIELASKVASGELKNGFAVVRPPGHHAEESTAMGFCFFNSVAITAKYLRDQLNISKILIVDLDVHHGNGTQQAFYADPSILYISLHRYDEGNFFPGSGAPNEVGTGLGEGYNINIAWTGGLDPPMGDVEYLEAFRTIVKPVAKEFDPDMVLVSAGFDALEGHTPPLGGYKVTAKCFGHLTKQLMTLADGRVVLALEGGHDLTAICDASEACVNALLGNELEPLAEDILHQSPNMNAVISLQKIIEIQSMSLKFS
Sequence of Histone deacetylase 4 (Homo sapiens) (P56524 whole entry): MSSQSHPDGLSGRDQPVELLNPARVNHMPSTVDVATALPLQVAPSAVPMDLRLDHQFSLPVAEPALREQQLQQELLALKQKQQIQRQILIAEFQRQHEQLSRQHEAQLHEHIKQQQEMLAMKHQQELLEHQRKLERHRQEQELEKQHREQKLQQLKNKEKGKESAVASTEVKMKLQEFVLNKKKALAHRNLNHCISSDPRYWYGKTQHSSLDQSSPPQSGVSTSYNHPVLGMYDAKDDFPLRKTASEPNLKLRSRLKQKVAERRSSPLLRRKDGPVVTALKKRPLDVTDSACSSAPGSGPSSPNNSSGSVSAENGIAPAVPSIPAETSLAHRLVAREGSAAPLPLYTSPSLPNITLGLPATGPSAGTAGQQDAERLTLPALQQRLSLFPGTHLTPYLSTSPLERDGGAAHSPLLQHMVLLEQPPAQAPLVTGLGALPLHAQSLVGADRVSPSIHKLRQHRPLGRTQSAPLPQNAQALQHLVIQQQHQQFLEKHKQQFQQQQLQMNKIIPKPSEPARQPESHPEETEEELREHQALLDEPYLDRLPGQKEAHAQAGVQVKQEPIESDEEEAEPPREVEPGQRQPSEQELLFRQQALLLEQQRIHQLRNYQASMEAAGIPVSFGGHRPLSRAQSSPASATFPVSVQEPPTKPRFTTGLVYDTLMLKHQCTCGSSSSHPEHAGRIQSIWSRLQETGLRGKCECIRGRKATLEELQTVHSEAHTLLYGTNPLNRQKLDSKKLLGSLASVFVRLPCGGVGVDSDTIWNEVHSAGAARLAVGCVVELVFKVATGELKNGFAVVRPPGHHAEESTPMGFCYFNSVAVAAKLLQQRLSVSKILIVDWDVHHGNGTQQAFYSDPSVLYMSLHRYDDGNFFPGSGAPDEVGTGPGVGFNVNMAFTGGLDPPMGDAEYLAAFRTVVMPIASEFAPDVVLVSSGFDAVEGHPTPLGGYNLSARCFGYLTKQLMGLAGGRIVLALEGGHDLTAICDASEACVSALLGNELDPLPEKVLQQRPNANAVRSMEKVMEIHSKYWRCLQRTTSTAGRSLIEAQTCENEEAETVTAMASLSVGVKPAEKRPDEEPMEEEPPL
T1 sequence (Q92769 whole entry): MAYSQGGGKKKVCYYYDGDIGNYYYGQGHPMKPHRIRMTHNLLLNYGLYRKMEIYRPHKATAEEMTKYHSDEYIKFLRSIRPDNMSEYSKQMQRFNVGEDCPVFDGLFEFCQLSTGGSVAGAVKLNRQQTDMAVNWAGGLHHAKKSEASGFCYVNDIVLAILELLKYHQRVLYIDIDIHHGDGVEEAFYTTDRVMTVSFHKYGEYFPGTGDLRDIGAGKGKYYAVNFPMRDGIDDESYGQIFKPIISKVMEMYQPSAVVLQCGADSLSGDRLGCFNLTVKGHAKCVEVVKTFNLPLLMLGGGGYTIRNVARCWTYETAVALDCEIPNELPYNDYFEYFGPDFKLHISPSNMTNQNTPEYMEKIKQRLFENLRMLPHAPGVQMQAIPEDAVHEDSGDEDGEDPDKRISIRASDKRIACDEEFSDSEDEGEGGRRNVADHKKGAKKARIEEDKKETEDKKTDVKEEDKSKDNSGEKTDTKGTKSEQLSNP
Sequence of Histone deacetylase 3 (O15379 whole entry, the tested form may be a part): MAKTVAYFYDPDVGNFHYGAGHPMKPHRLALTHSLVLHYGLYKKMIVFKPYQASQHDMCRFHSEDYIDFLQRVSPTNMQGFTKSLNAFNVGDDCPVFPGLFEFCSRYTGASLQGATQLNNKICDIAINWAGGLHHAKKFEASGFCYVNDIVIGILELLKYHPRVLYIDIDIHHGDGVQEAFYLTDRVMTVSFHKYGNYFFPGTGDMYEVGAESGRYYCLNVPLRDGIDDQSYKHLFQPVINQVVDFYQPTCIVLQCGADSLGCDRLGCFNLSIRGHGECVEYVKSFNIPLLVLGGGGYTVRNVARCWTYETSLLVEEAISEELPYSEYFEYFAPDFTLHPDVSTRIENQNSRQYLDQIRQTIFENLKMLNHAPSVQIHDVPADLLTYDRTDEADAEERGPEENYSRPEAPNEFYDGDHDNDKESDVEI

- Activity [1]: 96.3%
- Activity [2]: 94.7%
- Activity [3]: 81%
- Activity [5]: 102%
- IC50 [7]: 690 nM
- Activity [8]: 111%
- Activity [9]: 5.75%
- Activity [10]: 98.2%
- Activity [11]: 107%
- Activity [12]: 101%
- Activity [13]: 103%
- Activity [14]: 111%
SMILES: NC(=O)c1cccc2[nH]c(-c3ccc(NCc4ccc(C(=O)Nc5ccccc5N)cc4)cc3)nc12
- Activity [4]: inactive
- Activity [6]: Active
